# In PubChem BioAssay (NCI):
#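 1) Cells in 96-well plates. 2) Compound, 48 h, 5 concentrations. 3) Linear interpolation between surrounding doses. 4) Unreached endpoint = highest concentration. TGI is the concentration that stops growth completely.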
# Tests used:
# Experiment in all cases: NCI tumour cell line growth inhibition, 48 h
# [1] = tested on: 786-0 renal
# [2] = tested on: A498 renal
# [3] = tested on: A549 NSCLC
# [4] = tested on: ACHN renal
# [5] = tested on: CCRF-CEM leukemia
# [6] = tested on: COLO 205 colon
# [7] = tested on: DLD-1 colon
# [8] = tested on: DMS 114 small cell lung
# [9] = tested on: EKVX NSCLC
# [10] = tested on: HCC-2998 colon
# [11] = tested on: HCT-116 colon
# [12] = tested on: HCT-15 colon
# [13] = tested on: HL-60(TB) leukemia
# [14] = tested on: HOP-62 NSCLC
# [15] = tested on: HOP-92 NSCLC
# [16] = tested on: HT29 colon
# [17] = tested on: IGROV1 ovarian
# [18] = tested on: K-562 leukemia
# [19] = tested on: KM12 colon
# [20] = tested on: KM20L2 colon
# [21] = tested on: LOX IMVI melanoma
# [22] = tested on: LXFL 529 NSCLC
# [23] = tested on: M14 melanoma
# [24] = tested on: M19-MEL melanoma
# [25] = tested on: MALME-3M melanoma
# [26] = tested on: MOLT-4 leukemia
# [27] = tested on: NCI-H460 lung
# [28] = tested on: OVCAR-3 ovarian
# [29] = tested on: OVCAR-5 ovarian
# [30] = tested on: OVCAR-8 ovarian
# [31] = tested on: RPMI-8226 leukemia
# [32] = tested on: RXF 393 renal
# [33] = tested on: SF-268 CNS
# [34] = tested on: SF-295 CNS
# [35] = tested on: SF-539 CNS
# [36] = tested on: SK-MEL-2 melanoma
# [37] = tested on: SK-MEL-28 melanoma
# [38] = tested on: SK-MEL-5 melanoma
# [39] = tested on: SK-OV-3 ovarian
# [40] = tested on: SN12C renal
# [41] = tested on: SNB-19 CNS
# [42] = tested on: SNB-75 CNS
# [43] = tested on: SNB-78 CNS
# [44] = tested on: SW-620 colon
# [45] = tested on: TK-10 renal
# [46] = tested on: U251 CNS
# [47] = tested on: UACC-257 melanoma
# [48] = tested on: UACC-62 melanoma
# [49] = tested on: UO-31 renal
# [50] = tested on: CAKI-1 renal
# [51] = tested on: DMS 273 small cell lung
# [52] = tested on: NCI-H226 lung
# [53] = tested on: NCI-H23 lung
# [54] = tested on: NCI-H522 lung
# [55] = tested on: OVCAR-4 ovarian
# [56] = tested on: SR leukemia
# [57] = tested on: BT-549 breast
# [58] = tested on: DU-145 prostate
# [59] = tested on: HS 578T breast
# [60] = tested on: MCF7 breast
# [61] = tested on: MDA-MB-231 breast
# [62] = tested on: MDA-MB-435
# [63] = tested on: MDA-N
# [64] = tested on: NCI/ADR-RES ovarian
# [65] = tested on: PC-3 prostate
# [66] = tested on: T-47D breast
smiles,measurement,setting,value
O=C(O)/C(=C/C=C/c1ccccc1)c1csc(-c2nc(/C(=C\C=C\c3ccccc3)C(=O)O)cs2)n1,TGI,[1],56.1 µM
same,TGI,[2],> 100 µM
same,TGI,[3],> 100 µM
same,TGI,[4],92.5 µM
same,TGI,[5],45.6 µM
same,TGI,[6],51.3 µM
same,TGI,[7],57.7 µM
same,TGI,[8],72 µM
same,TGI,[9],> 100 µM
same,TGI,[10],59.7 µM
same,TGI,[11],40.8 µM
same,TGI,[12],> 100 µM
same,TGI,[13],39.3 µM
same,TGI,[14],54.6 µM
same,TGI,[15],59.9 µM
same,TGI,[16],> 100 µM
same,TGI,[17],> 100 µM
same,TGI,[18],54.6 µM
same,TGI,[19],92.4 µM
same,TGI,[20],> 100 µM
same,TGI,[21],> 100 µM
same,TGI,[22],64.8 µM
same,TGI,[23],61 µM
same,TGI,[24],> 100 µM
same,TGI,[25],60 µM
same,TGI,[26],16.4 µM
same,TGI,[27],> 100 µM
same,TGI,[28],57.5 µM
same,TGI,[29],> 100 µM
same,TGI,[30],> 100 µM
same,TGI,[31],65.3 µM
same,TGI,[32],82.4 µM
same,TGI,[33],> 100 µM
same,TGI,[34],87.6 µM
same,TGI,[35],51.2 µM
same,TGI,[36],43.6 µM
same,TGI,[37],> 100 µM
same,TGI,[38],86.3 µM
same,TGI,[39],> 100 µM
same,TGI,[40],> 100 µM
same,TGI,[41],58.1 µM
same,TGI,[42],98.7 µM
same,TGI,[43],79.8 µM
same,TGI,[44],> 100 µM
same,TGI,[45],> 100 µM
same,TGI,[46],> 100 µM
same,TGI,[47],> 100 µM
same,TGI,[48],98.1 µM
same,TGI,[49],59.6 µM
COc1ccc(/C=c2\sc3n(c2=O)C(N)=C(C#N)C(c2ccc(OC)cc2)C=3c2nc3ccccc3[nH]2)cc1 (centres undefined),TGI,[1],> 100 µM
same,TGI,[2],> 100 µM
same,TGI,[3],> 100 µM
same,TGI,[4],> 100 µM
same,TGI,[50],42.9 µM
same,TGI,[5],> 100 µM
same,TGI,[6],> 100 µM
same,TGI,[8],72.9 µM
same,TGI,[51],> 100 µM
same,TGI,[9],56.2 µM
same,TGI,[10],64.3 µM
same,TGI,[11],64.1 µM
same,TGI,[12],59.2 µM
same,TGI,[13],> 100 µM
same,TGI,[14],> 100 µM
same,TGI,[15],70 µM
same,TGI,[17],> 100 µM
same,TGI,[18],> 100 µM
same,TGI,[19],31 µM
same,TGI,[20],> 100 µM
same,TGI,[21],35.2 µM
same,TGI,[23],> 100 µM
same,TGI,[24],63.8 µM
same,TGI,[25],42.2 µM
same,TGI,[26],> 100 µM
same,TGI,[52],49.2 µM
same,TGI,[53],20.2 µM
same,TGI,[27],40.9 µM
same,TGI,[54],> 100 µM
same,TGI,[28],44.3 µM
same,TGI,[55],> 100 µM
same,TGI,[29],67.5 µM
same,TGI,[31],> 100 µM
same,TGI,[33],> 100 µM
same,TGI,[36],61.5 µM
same,TGI,[37],56.1 µM
same,TGI,[38],36.8 µM
same,TGI,[40],> 100 µM
same,TGI,[41],> 100 µM
same,TGI,[42],> 100 µM
same,TGI,[56],> 100 µM
same,TGI,[44],83.6 µM
same,TGI,[45],66.5 µM
same,TGI,[46],34.4 µM
same,TGI,[47],78.8 µM
same,TGI,[48],> 100 µM
same,TGI,[49],> 100 µM
CC1(Cl)CCC2(CC(Br)=CC3OC32C)CC1Br (centres undefined),TGI,[2],68.8 µM
same,TGI,[3],> 100 µM
same,TGI,[5],53.5 µM
same,TGI,[8],83.2 µM
same,TGI,[9],> 100 µM
same,TGI,[11],40.2 µM
same,TGI,[13],38.7 µM
same,TGI,[14],87.4 µM
same,TGI,[15],78.8 µM
same,TGI,[16],57 µM
same,TGI,[17],> 100 µM
same,TGI,[19],> 100 µM
same,TGI,[23],> 100 µM
same,TGI,[24],81.2 µM
same,TGI,[26],52.4 µM
same,TGI,[52],47.3 µM
same,TGI,[53],49.9 µM
same,TGI,[27],71.1 µM
same,TGI,[54],55.5 µM
same,TGI,[29],> 100 µM
same,TGI,[30],91.7 µM
same,TGI,[32],40.8 µM
same,TGI,[33],50.1 µM
same,TGI,[34],57.6 µM
same,TGI,[37],69.9 µM
same,TGI,[39],> 100 µM
same,TGI,[41],> 100 µM
same,TGI,[43],86.6 µM
same,TGI,[56],55.8 µM
same,TGI,[45],> 100 µM
same,TGI,[46],41.8 µM
same,TGI,[47],42.4 µM
same,TGI,[48],42.7 µM
same,TGI,[49],66.6 µM
O=C(/C=C/c1cc(O)c(O)cc1O)OCCc1ccccc1,TGI,[1],18.6 µM
same,TGI,[2],37.4 µM
same,TGI,[3],> 100 µM
same,TGI,[4],26.8 µM
same,TGI,[57],62.1 µM
same,TGI,[50],78.3 µM
same,TGI,[5],7.17 µM
same,TGI,[6],25.7 µM
same,TGI,[58],> 85.1 µM
same,TGI,[9],> 95.6 µM
same,TGI,[10],> 100 µM
same,TGI,[11],> 58.4 µM
same,TGI,[12],54.7 µM
same,TGI,[13],3.73 µM
same,TGI,[14],75.4 µM
same,TGI,[15],20.5 µM
same,TGI,[59],> 93.9 µM
same,TGI,[16],41.6 µM
same,TGI,[17],40.5 µM
same,TGI,[18],6.89 µM
same,TGI,[19],> 100 µM
same,TGI,[21],32 µM
same,TGI,[23],32.7 µM
same,TGI,[25],28.2 µM
same,TGI,[60],20.9 µM
same,TGI,[61],38.3 µM
same,TGI,[62],48.9 µM
same,TGI,[63],20.2 µM
same,TGI,[26],11.7 µM
same,TGI,[52],> 100 µM
same,TGI,[53],53.1 µM
same,TGI,[27],> 100 µM
same,TGI,[54],4.74 µM
same,TGI,[64],71.2 µM
same,TGI,[28],15.7 µM
same,TGI,[55],31.8 µM
same,TGI,[29],> 59.2 µM
same,TGI,[30],22.9 µM
same,TGI,[65],34.2 µM
same,TGI,[31],> 46 µM
same,TGI,[32],> 31.1 µM
same,TGI,[33],38.6 µM
same,TGI,[34],> 82.3 µM
same,TGI,[35],44.5 µM
same,TGI,[36],47.2 µM
same,TGI,[37],39.3 µM
same,TGI,[38],38.4 µM
same,TGI,[39],74.8 µM
same,TGI,[40],22.1 µM
same,TGI,[41],> 100 µM
same,TGI,[42],> 100 µM
same,TGI,[56],30.6 µM
same,TGI,[44],21.2 µM
same,TGI,[66],20.1 µM
same,TGI,[45],17.6 µM
same,TGI,[46],> 57.9 µM
same,TGI,[47],> 64.9 µM
same,TGI,[48],40.5 µM
same,TGI,[49],19.7 µM
